# Results as given in US20160168195A1, “OLIGOPEPTIDES AND PROCESS FOR PREPARATION THEREOF” (Council of Scientific & Industrial Research, priority 2011, published 2016).
# Tests used:
# [1] = tested on: human cervical cancer cell line (HeLa); experiment: Determination of IC50 in cancer cell lines (cell counting, trypan blue), HeLa; type: cell-based; conditions: 24 h with compound (1-40 nM), inhibition of cell proliferation, read-out: IC50 against He La cells
# Procedure: (§1) Then the medium was replaced with fresh medium containing vehicle (0.1% DMSO) or different concentrations of compounds (1-40 nM) and the cells were grown for an additional 24 h. Both attached and floating cells were harvested and counted after staining with trypan blue (Rathinasamy et al, BMC Cancer 2010; 10:213). Percentage inhibition of cell proliferation was plotted against compound concentration using Origin Pro 7.5 software (Table 2).
# HeLa cells [2] = experiment: Apoptosis detection by DNA fragmentation assay; type: cell-based, human; conditions: HeLa, 7, 15, 30 nM, 40 h
# Procedure: (§2) After 40 h of incubation, cells were trypsinized and collected by centrifugation. After washing pellet twice in PBS, the cells were lysed in buffer (50 mM Tris pH 8.0, 10 mM EDTA, 0.5% sarcosine, and 0.5 mg/mL proteinase K), and incubated at 50° C. for 1 h in the heating block. RNase A (1 mg/mL) was added and incubation was further extended for 1 h. The samples were allowed to come to 25° C. Gel electrophoresis was done using 2% agarose and the fragmented genomic DNA visualized after staining with ethidium bromide using UV gel documentation system (FIG. 2) (Rathinasamy et al, FEBS J 2006; 273:4114). HeLa cells were incubated with different concentrations of compound 5 (7, 15 and 30 nM) for 24 h. Cells were stained with annexin V and propidium iodide. The number of cells undergoing apoptosis was estimated by counting the annexin V and propidium iodide positive cells (FIG. 13).
# [3] = tested on: microtubules of HeLa cells; experiment: Effect on interphase and mitotic microtubules of HeLa cells (immunostaining); type: cell-based, human
# Procedure: Effect of Compound 5 on interphase and mitotic microtubules of HeLa cells: HeLa cells were seeded at a density of 0.6×10^5 cells/mL and were grown as monolayer on glass cover slips. Compounds diluted in Dimethyl sulfoxide (DMSO) (0.1% final concentration) were added to the culture medium 24 h after seeding. Then, the medium was replaced with fresh medium containing vehicle (0.1% DMSO) or different concentrations (7, 15, 30 nM) of compound 5 and the incubation continued for further 24 h. The cells were then fixed with 3.7% formaldehyde at 37° C. for 30 min and immunostained using tubulin antibody (FIGS. 4 and 5) (Mohan R and Panda D, Cancer Res. 2008, 68: 6181). The DNA was stained using Hoechst 33258 dye. The images were visualized by TE Eclipse 2000U fluorescence microscope (Nikon, Tokyo, Japan) and analyzed with Image-Pro Plus software.
# HeLa cells [4] = experiment: Apoptosis by annexin V and propidium iodide staining; type: cell-based, human; conditions: HeLa, 7, 15, 30 nM, 24 h
# Procedure: as §2
# MDA-MB-231 cells = experiment: Determination of IC50 in cancer cell lines (cell counting, trypan blue), MDA-MB-231; type: cell-based, human; conditions: MDA-MB-231 (highly metastatic breast cancer)
# Procedure: as §1
# MCF-7 cells = experiment: Determination of IC50 in cancer cell lines (cell counting, trypan blue), MCF-7; type: cell-based, human; conditions: MCF-7 (breast cancer)
# Procedure: as §1
# Goat brain tubulin = experiment: Microtubule polymerization assay (light scattering); type: biochemical; conditions: tubulin 10 μM, 30 min, compared with compounds 1, 2, 3
# Procedure: Microtubule polymerization assay: Goat brain tubulin (10 μM) was incubated without or with different compounds 1, 2, 3 and compound 5 (5 μM) in microtubule assembly buffer (1 M monosodium glutamate, 3 mM MgCl2, 1 mM EGTA and 25 mM PIPES pH 6.8) on ice for 20 minutes. Then, GTP (1 mM) was added to the reaction mixture. The assembly of tubulin was monitored at 37° C. using a spectrofluorometer for 30 min. Similar experiment was done with compound 5 (1, 5, 7 and 10 μM). MAPs-rich tubulin (1 mg/mL) was incubated without or with different concentrations of compound 5 (1, 3, 5 and 10 μM) in PEM buffer (25 mM pipes pH 6.8 containing 3 mM MgCl2 and 1mM EGTA) for 15 min on ice and then, 1 mM GTP was added to the reaction mixture. The effect of D1, D2, D3 and D5 on the assembly kinetics was monitored as described above for purified tubulin (FIG. 3) (Gupta and Panda, Biochemistry 2002; 41:13029) to study depolymerization of microtubules which is a mechanism of anticancer activity.
# [5] = tested on: solid tumors and soft tissue sarcomas; conditions: cited from earlier work
# [6] = in vivo; cited from earlier work
compound,measurement,setting,value
"CC[C@H](C)C(/C=C/C(=O)NCC1O[C@@H](C(=O)N[C@@H](Cc2ccccc2)C2=NCCS2)[C@@H](OC)[C@@H]1OC)N(C)C(=O)[C@@H](NC(=O)[C@@H](NC)C(C)C)C(C)C (stereo partly drawn) [Compound 1, Dov(R^1═H)-Val-(4S,5S)-Dil(X,Y═CH)-SAA(2R)-Doe(R^2=2-(4,5-dihydrothiazolyl), n=1)]",IC50,[1],8.7 nM
"CC[C@H](C)C(/C=C/C(=O)NCC1O[C@@H](C(=O)N[C@@H](Cc2ccccc2)C2=NCCS2)[C@@H](OC)[C@@H]1OC)N(C)C(=O)[C@@H](NC(=O)[C@H](C(C)C)N(C)C)C(C)C (stereo partly drawn) [Compound 2, Dov(R^1=Me)-Val-(4S,5S)-Dil(X,Y═CH)-SAA(2R)-Doe(R^2=2-(4,5-dihydrothiazolyl), n=1)]",IC50,[1],8.8 nM
"CC[C@H](C)C([C@H](CC(=O)NCC1O[C@H](C(=O)N[C@@H](Cc2ccccc2)c2nccs2)[C@@H](OC)[C@@H]1OC)OC)N(C)C(=O)[C@@H](NC(=O)[C@@H](NC)C(C)C)C(C)C (stereo partly drawn) [Compound 3, Dov(R^1═H)-Val-(3S,4S,5S)-Dil(X═C(OCH3)H,Y═CH2)-SAA(2S)-Doe(R^2=2-(thiazolyl), n=1)]",IC50,[1],9.9 nM
"CC[C@H](C)C([C@H](CC(=O)NCC1O[C@H](C(=O)N[C@@H](Cc2ccccc2)c2nccs2)[C@@H](OC)[C@@H]1OC)OC)N(C)C(=O)[C@@H](NC(=O)[C@H](C(C)C)N(C)C)C(C)C (stereo partly drawn) [Compound 4, Dov(R^1=Me)-Val-(3S,4S,5S)-Dil(X═C(OCH3)H,Y═CH2)-SAA(2S)-Doe(R^2=2-(thiazolyl), n=1)]",IC50,[1],16 nM
"CC[C@H](C)C([C@@H](CC(=O)NCC1O[C@H](C(=O)NCCc2ccccc2)[C@@H](OC)[C@@H]1OC)OC)N(C)C(=O)[C@@H](NC(=O)[C@@H](NC)C(C)C)C(C)C (stereo partly drawn) [Compound 5, Dov(R^1═H)-Val-(3R,4S,5S)-Dil(X═C(OCH3)H,Y═CH2)-SAA(2S)-Doe(R^2═H, n=1)]",genomic DNA fragmentation (in words),HeLa cells [2],DNA fragmentation
same,genomic DNA fragmentation (in words),HeLa cells [2]; listed as D5,caused genomic DNA fragmentation
same,effect on interphase microtubules of HeLa cells (in words),"[3]; 7, 15, 30 nM, 24 h",perturbed microtubule network
same,effect on mitotic microtubules of HeLa cells (in words),"[3]; 7, 15, 30 nM, 24 h",perturbed microtubule network
same,depolymerization of interphase and mitotic microtubules (in words),[3]; at 15 to 30 nM,showed depolymerization of interphase and mitotic microtubules
same,"induction of apoptosis (Annexin V and PI staining, in words)",HeLa cells [4],induced apoptosis
same,inhibition of proliferation of MDA-MB-231 cells (in words),MDA-MB-231 cells,inhibited proliferation
same,IC50,"MDA-MB-231 cells; 24 h, read-out: IC50 values for compound 5, MDA-MB-231 cells",13 ± 5 nM
same,IC50,[1],6.8 nM
same,inhibition of proliferation of MCF-7 cells (in words),MCF-7 cells,inhibited proliferation
same,IC50,"MCF-7 cells; 24 h, read-out: IC50 values for compound 5, MCF-7 cells",15 ± 7 nM
same,"effect on assembly of purified tubulin, relative potency (in words)",Goat brain tubulin,maximum potency
"CC[C@H](C)C([C@@H](CC(=O)NCC1O[C@@H](C(=O)NCCc2ccccc2)[C@@H](OC)[C@@H]1OC)OC)N(C)C(=O)[C@@H](NC(=O)[C@@H](NC)C(C)C)C(C)C (stereo partly drawn) [Compound 6, Dov(R^1═H)-Val-(3R,4S,5S)-Dil(X═C(OCH3)H,Y═CH2)-SAA(2R)-Doe(R^2═H, n=1)]",IC50,[1],15 nM
"CC[C@H](C)C([C@H](O)CC(=O)NCC1O[C@@H](C(=O)NCc2ccccc2)[C@@H](OC)[C@@H]1OC)N(C)C(=O)[C@@H](NC(=O)[C@@H](NC)C(C)C)C(C)C (stereo partly drawn) [Compound 7, Dov(R^1═H)-Val-(3R,4S,5S)-Dil(X═C(OH)H,Y═CH2)-SAA(2R)-Doe(R^2═H, n=0)]",IC50,[1],16 nM
"CC[C@H](C)C([C@H](O)CC(=O)NCC1O[C@H](C(=O)NCc2ccccc2)[C@@H](OC)[C@@H]1OC)N(C)C(=O)[C@@H](NC(=O)[C@@H](NC)C(C)C)C(C)C (stereo partly drawn) [Compound 8, Dov(R^1═H)-Val-(3R,4S,5S)-Dil(X═C(OH)H,Y═CH2)-SAA(2S)-Doe(R^2═H, n=0)]",IC50,[1],12 nM
Dolastatin-10,responses in phase I and II clinical trials (in words),"[5]; variety of solid tumors and soft tissue sarcomas, Von Mehren et al 2004",did not demonstrate any responses
Dolastatin-15,side effects (in words),[6],severe side effects such as arterial hypertension and myocardial infarction
TZT-1027,activity in Phase II trials (in words),"[5]; Phase II, Patel et al 2006",no activity
